Entries after “also recorded” stand apart in the source; their conditions may differ.
Tests used:
[1] = molecular target: T1, APJ (Apelin receptor) (Homo sapiens, UniProt P35414); assay: Intracellular calcium assay (Fluo-4 NW); assay type: cell-based
T1 sequence (P35414 1-380): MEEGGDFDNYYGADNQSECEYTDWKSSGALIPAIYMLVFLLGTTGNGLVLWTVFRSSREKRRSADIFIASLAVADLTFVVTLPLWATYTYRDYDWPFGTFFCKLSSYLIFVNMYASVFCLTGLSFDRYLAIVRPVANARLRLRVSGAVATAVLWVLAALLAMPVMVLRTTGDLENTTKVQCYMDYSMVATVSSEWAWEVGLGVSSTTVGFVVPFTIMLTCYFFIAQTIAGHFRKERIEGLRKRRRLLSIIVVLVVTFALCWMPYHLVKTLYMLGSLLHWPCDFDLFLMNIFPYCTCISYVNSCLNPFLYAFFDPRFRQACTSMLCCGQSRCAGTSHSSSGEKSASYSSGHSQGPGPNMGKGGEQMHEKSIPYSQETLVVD
Method: HEK293 cells stably expressing APJ were plated at 10^4 cells per well in 96-well black microplates pretreated with a 0.1 mg/ml solution of poly-D-lysine for 24 h. Calcium fluorescence signals in cells were measured using the Fluo-4 NW calcium assay kit (Thermo Fisher Scientific) according to the manufacturer’s instructions ([Chen et al., 2014]; [Wang et al., 2017]). Before detection, cells were washed twice with assay buffer (1 × HBSS, 20 mM HEPES). One hundred microlitres of the dye loading solution was added to each well of a 96-well plate. Cells were incubated at 37°C in 5% CO2 humidified atmosphere for 30 min, then at room temperature for an additional 30 min. Cells were stimulated with six ligands (100 nM) for 5 min, then calcium signals were immediately measured on a Mithras LB940 plate reader (Berthold Technologies, Bad Wildbad, Germany) with an excitation wavelength of 485 nm and an emission wavelength of 525 nm. Dose response curve: cells were stimulated with different concentrations of six peptides for 30 s, and calcium fluorescence was detected. The calculation of the calcium fluorescence ratio was described previously ([Chen et al., 2014]).
The concentration-response data for the ligands in various assays were analyzed to determine the biases of the ligands for G protein dependent signaling or β-arrestin dependent signaling, according to a previously published method ([Kenakin et al., 2012]; [Hager et al., 2016]; [Hothersall et al., 2017]). Briefly, the concentration-response data for each ligand were fitted to the Black–Leff operation model to obtain the values of τ and K A, using the following equation: Response=[A]^nτ^nEm/[A]^nτ^n+([A]KA)^n where [A] is the concentration of the agonist, E m is the maximal response of the system, n is the transducer slope, and K A and τ describe the affinity and efficacy of the agonist, respectively. In the data fitting, the reparametrized form of the equation proposed by [Kenakin et al. (2012)] was used: Response=Em/1+exp{nln[1+exp(β1)/[A]]−nβ2} where β 1 and β 2 are the natural logarithm of K A and τ, respectively, and E m was set to 1. Thus, for each concentration-response curve, a non-linear regression was performed to fit the above equation to give β 1 and β 2 (as well as n). Log (τ/K A) values (“transduction coefficients”) for each ligand vs. each pathway were obtained. […] The ΔΔlog (τ/K A), or Log (Bias), which is the logarithm of the bias factor for a given pathway over a reference pathway (here, intracellular calcium release), was calculated for each ligand as Δlog (τ/K A)–Δlog (τ/K A)Calcium. The 95% confidence interval (CI) was expressed as the mean ± standard error; Log (Bias) values, whose 95% CI crosses 0, were considered statistically insignificant.
The data were analyzed using GraphPad Prism v5.0. All the data are presented as the mean ± SEM. Differences between groups were compared by one-way analysis of variants (ANOVA), followed by post-hoc tests (Tukey’s test), When p < 0.05, the difference was considered significant. All experiments were repeated at least four times. The dose-response curves were generated using non-linear fitting model log (agonist) vs. response (three-parameters), with Hill Slope held to 1, i.e., Y = Bottom + (Top-Bottom)/(1 + 10^(LogEC50-X)).
HEK293 cells stably expressed APJ, and in 30 s, the dose response curve stimulated with six peptides was measured. Data represent mean ± SEM from four independent experiments (Supplementary Table S2). With six peptides (B) stimulation, the dose-response curve of GRK2 recruited to APJ was measured by BRET (at 15 min). p < 0.05 was considered as statistically significant. Data represent mean ± SEM from four independent experiments (Supplementary Table S3).
P<0.05 was considered as statistically significant. Control group (HG, Cells were stimulated with high glucose).

[2] = molecular target: APJ; parameters: method as in Couvineau et al., 2020; settings: displacement of 125I-pE13F; ref Couvineau et al., 2020; cited from earlier work
[3] = molecular target: T1, APJ (Apelin receptor); assay: Analysis of ligand bias across APJ pathways; assay type: cell-based; parameters: APJ membrane preparations were obtained from transiently transfected HEK293 cells; host or cells: HEK293 cells, transiently transfected; membranes prepared; settings: reference ligand Apelin-13, reference pathway calcium release
Method: The concentration-response data for the ligands in various assays were analyzed to determine the biases of the ligands for G protein dependent signaling or β-arrestin dependent signaling, according to a previously published method ([Kenakin et al., 2012]; [Hager et al., 2016]; [Hothersall et al., 2017]). Briefly, the concentration-response data for each ligand were fitted to the Black-Leff operation model to obtain the values of τ and K A, using the following equation: Response=[[…] where [A] is the concentration of the agonist, E m is the maximal response of the system, n is the transducer slope, and K A and τ describe the affinity and efficacy of the agonist, respectively. In the data fitting, the reparametrized form of the equation proposed by [Kenakin et al. (2012)] was used: Response=[…]β2} where β 1 and β 2 are the natural logarithm of K A and τ, respectively, and E m was set to 1. […] The ΔΔlog (τ/K A), or Log (Bias), which is the logarithm of the bias factor for a given pathway over a reference pathway (here, intracellular calcium release), was calculated for each ligand as Δlog (τ/K A)-Δlog (τ/K A)Calcium. The 95% confidence interval (CI) was expressed as the mean ± standard error; Log (Bias) values, whose 95% CI crosses 0, were considered statistically insignificant.

[4] = Ca2+ (reference pathway), reference ligand Apelin-13

- P vs HG, intracellular calcium ([1]; 0.001 nM): P>0.05
- P vs HG, intracellular calcium ([1]; 0.01 nM): P>0.05
- P vs HG, intracellular calcium ([1]; 0.1 nM): P>0.05
- P vs HG, intracellular calcium ([1]; 1 nM): P>0.05
- P vs HG, intracellular calcium ([1]; 10 nM): ^*P<0.05
- P vs HG, intracellular calcium ([1]; 100 nM): ^***P<0.001
- P vs HG, intracellular calcium ([1]; 1000 nM): ^***P<0.001
- Bias factor [1, 4]: 1.0
- Log (Bias) [1, 4]: 0.0
- log (τ/KA) ([1]; Ca2+ pathway, Black–Leff operational model): −1.8
- Δlog (τ/KA) ([1]; Ca2+ pathway, relative to Apelin-13): −1.6
SMILES: CSCC[C@H](NC(=O)[C@@H]1CSSC[C@H](NC(=O)[C@H](CC(N)=O)NC(=O)[C@H](Cc2c[nH]cn2)NC(=O)[C@H](CCCCN)NC(=O)[C@H](CCCNC(=N)N)NC(=O)[C@@H](N)CC(C)C)C(=O)N[C@@H](CC(C)C)C(=O)N[C@@H](CCC(N)=O)C(=O)N[C@@H](CCCNC(=N)N)C(=O)N[C@@H](CCCNC(=N)N)C(=O)N1)C(=O)N1CCC[C@H]1C(=O)N[C@@H](CC(C)C)C(=O)N[C@@H](Cc1c[nH]cn1)C(=O)N[C@@H](CO)C(=O)N[C@@H](CCCNC(=N)N)C(=O)N[C@H](C(=O)N1CCC[C@H]1C(=O)N[C@@H](Cc1ccccc1)C(=O)N1CCC[C@H]1C(=O)O)C(C)C [Elabela-21]
- pKi [2]: 9.49
- signaling bias profile (in words) [3]: much stronger activity on the cAMP pathway; also recorded: weaker activity; also recorded: very weak effects on β-arrestin dependent pathways
